Results as given in paper PMC8303963, “Action of Multiple Rice β-Glucosidases on Abscisic Acid Glucose Ester” (International Journal of Molecular Sciences, 2021).

Molecular target: T1, Os9BGlu31 (Oryza sativa, UniProt B7F7K7)
T1 construct: gene BGLU31; recombinant from E. coli, IMAC purified
T1 sequence (B7F7K7 23-523): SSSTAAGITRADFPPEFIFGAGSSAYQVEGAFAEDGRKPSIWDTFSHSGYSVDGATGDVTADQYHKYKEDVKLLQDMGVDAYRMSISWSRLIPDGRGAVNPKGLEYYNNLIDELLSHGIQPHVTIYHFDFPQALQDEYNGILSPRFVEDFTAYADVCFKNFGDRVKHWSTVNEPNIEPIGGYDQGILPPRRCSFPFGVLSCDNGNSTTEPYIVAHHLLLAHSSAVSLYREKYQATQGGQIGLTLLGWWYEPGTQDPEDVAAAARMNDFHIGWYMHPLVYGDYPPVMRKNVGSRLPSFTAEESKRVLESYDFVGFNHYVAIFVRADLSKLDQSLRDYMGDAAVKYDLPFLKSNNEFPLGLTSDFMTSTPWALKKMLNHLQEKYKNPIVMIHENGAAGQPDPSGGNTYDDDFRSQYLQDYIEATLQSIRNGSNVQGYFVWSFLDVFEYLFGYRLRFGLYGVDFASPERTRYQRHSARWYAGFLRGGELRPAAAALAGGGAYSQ
Assay: preparative transglucosylation, product by NMR and UHPLC
Type: biochemical
Settings: glucose acceptor; 10 mM ABA, 10 mM pNPGlc as donor, citrate buffer pH 4.5, 37 °C overnight

Compound: CC1=CC(=O)CC(C)(C)[C@@]1(O)/C=C/C(C)=C\C(=O)O [ABA]
- preparative transglucosylation, product by NMR and UHPLC: used to transfer glucose from pNPGlc to ABA to generate ABA-GE
